The subject of experiment [1] is Neurodegenerated cells (perinatal tissue derived human stem cell model for Alzheimer's disease). Nature of the experiment: Lactate dehydrogenase (LDH) assay, in vitro model of Alzheimer's disease. The experiment is classed as cell-based. Particulars: probucol 20 μM, SPQ 10 μM, HA-1 10 μM, rivastigmine 2 μM, 24 hours; compared to ND cells. How it is done: (§1) Perinatal tissue derived human stem cell model for Alzheimer's disease (AD) was prepared using proprietary protocols to test the effect of new drug entities. Drug treatment was for 24 h in all the assays.
LDH leakage is a well characterised marker of cellular membrane damage and increase in indicative of lactate deficit, is a hallmark of AD.

Experiment [2] has as its system Neurodegenerated cells (Alzheimer's disease model). Nature of the experiment: Mitochondrial membrane potential by TMRE assay, Alzheimer's disease model. The format is cell-based, human. To be noted: AD model; probucol 20 μM, SPQ 10 μM, HA-1 10 μM, rivastigmine 2 μM, 24 hours. As to the method:
as §1
Aβ plaques are sources of toxicity that lead to severe structural and functional abnormalities in mitochondria in Alzheimer's disease. For assessing the changes in the electrophysiology and functional changes in the mitochondrial membrane potential, we used TMRE (tetramethylrhodamine ethyl ester) for quantifying changes in mitochondrial membrane potential in live cells by fluorimetry.

Experiment [3] shares this test system. Nature of the experiment: Immunocytochemical localization of AD specific and neuronal markers. The experiment is classed as cell-based, human. To be noted: fluorescence micrographs. How it is done:
as §1
For further confirmation and protein localization of the AD specific neurodegenerative markers and neuronal markers, we performed immunolocalization for BACE1 and synapsin respectively.
Fluorescence micrographs of BACE1 positive neuronal cells were obtained and the effects of probucol, SPQ and HA-1 on neurodegeneration model were compared. […] In the AD model, as expected BACE1 accumulation is clearly pronounced.
In the case of synapsin 1, a disruption in expression of synapsin protein in ND cells was observed.

In experiment [4] the test system is Neurodegenerated cells (Parkinson's disease model). Nature of the experiment: Immunocytochemical localization of PD specific and neuronal markers. Particulars: fluorescence micrographs. The format is cell-based, human. How it is done: (§2) Perinatal tissue derived human stem cell model for Parkinson's disease (PD) was prepared using proprietary protocols to test the effect of new drug entities. Drug treatment was for 24 hours in all the assays.
For further confirmation and protein localization of neuronal, dopaminergic and PD specific neurodegenerative markers, we performed immunolocalization for synapsin I, Nurr1, TH and α-synuclein respectively.
Fluorescence micrographs of synapsin 1 positive neuronal cells were obtained and the effects of probucol, SPQ and HA-1 on neurodegeneration model with L-Dopa as positive control were compared.
Fluorescence micrographs of Nurr1 positive dopaminergic neuronal cells were obtained and the effects of probucol, SPQ and HA-1 on neurodegeneration model with L-Dopa as positive control were compared.
Fluorescence micrographs of TH positive dopaminergic neuronal cells were obtained and the effects of probucol, SPQ and HA-1 on neurodegeneration model with L-Dopa as positive control were compared.
Fluorescence micrographs of α-synuclein immunolocalization were obtained and the effects of probucol, SPQ and HA-1 on neurodegeneration model with L-Dopa as positive control were compared.

In experiment [5] the test system is Neurodegenerated cells (Alzheimer's disease model). Nature of the experiment: Glutathione peroxidase / GSH activity, Alzheimer's disease model. The format is cell-based, human. To be noted: AD model; vs neurodegeneration. How it is done: as §1
Alzheimer's disease-related increase in oxidative stress is associated with decrease in the levels of brain antioxidant glutathione (GSH).
(Statistical analysis: results are expressed in mean±SD. One-way ANOVA followed by Dunnett's post hoc test was performed to compare all columns vs neurodegeneration (p<0.05; *p<0.05, **p<0.001, ***p<0.0001, ns=non-significant, n=3).)

Experiment [6] shares this test system. Nature of the experiment: Acetylcholine (ACh) release, Amplex Red reagent-based assay, Alzheimer's disease model. The experiment is classed as cell-based, human. Particulars: probucol 20 μM, SPQ 10 μM, HA-1 10 μM, rivastigmine 2 μM, 24 hours. As to the method:
as §1
(§3) Acetylcholinesterase (AChE) that regulates hydrolysis of acetylcholine (ACh) in the brain, is an important target for treatment of Alzheimer's disease (AD), a feature of which is ACh deficiency. We assayed for AChE activity and ACh release in control, neurodegenerated AD and drug treated AD cells.

The test system is the same in experiment [7]. In words: Gene expression analysis by qRT-PCR for neuronal, cholinergic and AD associated markers. Particulars: 24 h drug treatment. The experiment is classed as cell-based, human. As to the method: as §1
For determining the expression of genes involved in AD specific neurodegeneration and neuronal markers, we analysed BACE and chAT (AD and cholinergic markers) and synapsin 1 and neuropilin (neuronal markers).

Experiment [8] concerns the target T1, Acetylcholinesterase (AChE) (Homo sapiens, UniProt P22303).
T1 construct: We assayed for AChE activity and ACh release in control, neurodegenerated AD and drug treated AD cells; endogenous in cells; host or cells: neurodegenerated cells of a human stem cell AD model derived from perinatal tissue (amniotic membrane mesenchymal stem cells are named for the MTT assay)
Nature of the experiment: Acetylcholinesterase (AChE) activity, Amplex Red reagent-based assay, Alzheimer's disease model. The format is cell-based. To be noted: probucol 20 μM, SPQ 10 μM, HA-1 10 μM, rivastigmine 2 μM, 24 hours. How it is done:
as §1, §3

In experiment [9] the test system is Neurodegenerated cells (Alzheimer's disease model). In words: Greiss (nitric oxide) assay, Alzheimer's disease model. The format is cell-based, human. Particulars: AD model. How it is done:
as §1
(§4) Increase in oxidative stress is associated with accumulation of amyloid beta seen in the AD model. Increased oxidative stress and nitric oxide levels lead to apoptosis and evoke cytotoxic effects on neurons.

Experiment [10] concerns Neurodegenerated cells (Parkinson's disease model). In words: Greiss (nitric oxide) assay, Parkinson's disease model. The format is cell-based, human. To be noted: PD model. How it is done: as §2
(§5) Increase in oxidative stress associated with accumulation of α-synuclein plays a central role in disease progression. Nitric oxide enhances the aggregation of α-synuclein and accelerates disease progression. Increased oxidative stress and nitric oxide levels lead to apoptosis and evoke cytotoxic effects on neurons.

Experiment [11] has as its system Neurodegenerated cells (Alzheimer's disease model). In words: ROS (reactive oxygen species) assay, Alzheimer's disease model. The experiment is classed as cell-based, human. To be noted: AD model. How it is done: as §1, §4
Experiment [12] has as its system Neurodegenerated cells (Parkinson's disease model). In words: ROS assay, Parkinson's disease model. The experiment is classed as cell-based, human. To be noted: PD model. How it is done: as §2, §5
Experiment [13] deals with Neurodegenerated cells (perinatal tissue derived human stem cell model for Parkinson's disease). In words: Mitochondrial membrane potential by TMRE assay, Parkinson's disease model. The experiment is classed as cell-based. To be noted: PD model; probucol 20 μM, SPQ 10 μM, HA-1 10 μM, L-Dopa 50 μM, 24 hours. How it is done: as §2
Dysfunctional mitochondria and alterations in the mitochondrial membrane potential promote neurodegeneration seen in Parkinson's disease. For assessing the changes in mitochondrial membrane potential, we used TMRE (tetramethylrhodamine ethyl ester) to quantify the changes in live cells by fluorimetry.
Neurodegenerated cells were incubated with probucol (20 μM), SPQ (10 μM), HA-1 (10 μM) and L-Dopa (50 μM) for 24 hours (p<0.05; *p<0.05, **p<0.001, ***p<0.0001, ns=non-significant, n=3).

T1 sequence (P22303 32-614): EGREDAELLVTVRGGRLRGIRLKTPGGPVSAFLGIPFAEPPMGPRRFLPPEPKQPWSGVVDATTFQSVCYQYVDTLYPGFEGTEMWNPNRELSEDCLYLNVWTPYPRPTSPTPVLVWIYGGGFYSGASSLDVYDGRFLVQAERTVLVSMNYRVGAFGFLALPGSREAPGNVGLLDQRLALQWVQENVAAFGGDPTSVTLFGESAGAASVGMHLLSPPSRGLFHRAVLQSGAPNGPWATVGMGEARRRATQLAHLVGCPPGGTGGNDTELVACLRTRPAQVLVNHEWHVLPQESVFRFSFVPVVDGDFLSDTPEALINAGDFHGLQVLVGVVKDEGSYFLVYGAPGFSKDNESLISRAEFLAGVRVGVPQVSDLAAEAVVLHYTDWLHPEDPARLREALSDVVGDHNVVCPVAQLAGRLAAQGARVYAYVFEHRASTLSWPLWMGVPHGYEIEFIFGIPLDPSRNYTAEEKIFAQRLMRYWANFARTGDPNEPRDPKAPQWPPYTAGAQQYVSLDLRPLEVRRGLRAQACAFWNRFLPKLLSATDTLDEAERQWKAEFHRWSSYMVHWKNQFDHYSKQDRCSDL

On to `CC(C)(Sc1cc(C(C)(C)C)c(O)c(C(C)(C)C)c1)Sc1cc(C(C)(C)C)c(O)c(C(C)(C)C)c1` [probucol, 2,6-ditert-butyl-4-[2-(3,5-ditert-butyl-4-hydroxyphenyl)sulfanylpropan-2-ylsulfanyl]phenol], for which the “LDH activity / LDH release” value in experiment [1] is reported as “decreased significantly LDH activity”. In addition, in [2], the “mitochondrial membrane potential (TMRE)” value was “maintain the mitochondrial membrane potential”. In addition, the “synapsin 1 protein expression (immunolocalization)” value (from here on “synapsin 1 protein expression”) in experiment [3] was “clear reversal of degeneration”. In experiment [4], the “Nurr1 (immunolocalization)” value is “more pronounced”, the “TH (immunolocalization)” value is on record as “more pronounced” and the “synapsin protein expression (immunolocalization)” value (“synapsin protein expression” below) is recorded as “clear restoration of synapsin expression”. The “glutathione (GSH) activity” value in experiment [5] was “increase in the anti-oxidant GSH activity”. Moreover, the “Acetylcholine (ACh) release / level” value in experiment [6] is “increase/maintain the level of acetylcholine (ACh)”. For the same compound, in experiment [7], the “BACE1 gene expression (qRT-PCR)” value is given as “decrease the level of beta secretase 1 (BACE1)”, the “ChAT gene expression (qRT-PCR)” value is listed as “increase the level of choline acetyltransferase (ChAT)”, the “neuropilin gene expression (qRT-PCR)” value is given as “increased” and the “synapsin 1 (Syn) gene expression (qRT-PCR)” value was “increased”. Also, in experiment [8], the “Acetylcholinesterase (AChE) activity” value was “inhibition of acetylcholinesterase (AChE) similar to rivastigmine”. Moreover, the nitric oxide level entry in experiment [9] is “prevent the reduction of endogenous nitric oxide level”. In addition, the nitric oxide level result in [10] is on record as “prevent the reduction of endogenous nitric oxide levels”. The “intracellular reactive oxidative stress (ROS)” value in experiment [11] is “decrease the level of ROS”. Further, in experiment [12], the “intracellular reactive oxidative stress (ROS)” value was “decrease the level of ROS”. In experiment [13], the “mitochondrial membrane potential (TMRE)” value is recorded as “maintain the mitochondrial membrane potential”.
Regarding `CC(=O)O[C@@H]1CC[C@@]2(C)[C@H](CC[C@@H]3[C@@H]2CC[C@]2(C)[C@@H]([C@H](C)CCC(=O)Oc4c(C(C)(C)C)cc(SC(C)(C)Sc5cc(C(C)(C)C)c(O)c(C(C)(C)C)c5)cc4C(C)(C)C)CC[C@@H]32)C1` [HA-1, 2,6-di-tert-butyl-4-((2-((3,5-di-tert-butyl-4-hydroxyphenyl)thio)propan-2-yl)thio)phenyl (4R)-4-[(3R,5R,8R,9S,10S,13R,14S,17R)-3-acetoxy-10,13-dimethyl-2,3,4,5,6,7,8,9,11,12,14,15,16,17-tetradecahydro-1H-cyclopenta[a]phenanthren-17-yl]pentanoate], the “LDH activity / LDH release” value in [1] is listed as “decreased significantly LDH activity”. Moreover, in experiment [2], the “mitochondrial membrane potential (TMRE)” value was “maintain the mitochondrial membrane potential”. For the same compound, in experiment [3], the “accumulation of BACE1 protein (immunolocalization)” value is “least expression” and the “synapsin 1 protein expression” value is given as “clear reversal of degeneration”. Also, in [4], the “Nurr1 (immunolocalization)” value is given as “more pronounced”, the “TH (immunolocalization)” value is “more pronounced”, the “accumulation of α-synuclein (immunolocalization)” value was “least expression” and the “synapsin protein expression” value was “clear restoration of synapsin expression”. Moreover, in experiment [5], the “glutathione (GSH) activity” value is listed as “increase in the anti-oxidant GSH activity”. Further, in [6], the “Acetylcholine (ACh) release / level” value was “increase/maintain the level of acetylcholine (ACh)”. Moreover, in [7], the “BACE1 gene expression (qRT-PCR)” value is “decrease the level of beta secretase 1 (BACE1)”, the “ChAT gene expression (qRT-PCR)” value is given as “increase the level of choline acetyltransferase (ChAT)”, the “neuropilin gene expression (qRT-PCR)” value is on record as “increased” and the “synapsin 1 (Syn) gene expression (qRT-PCR)” value is “increased”. In experiment [8], the “Acetylcholinesterase (AChE) activity” value is on record as “inhibition of acetylcholinesterase (AChE) similar to rivastigmine”. Moreover, in experiment [9], the nitric oxide level result is recorded as “prevent the reduction of endogenous nitric oxide level”. Besides, the nitric oxide level result in experiment [10] is given as “prevent the reduction of endogenous nitric oxide levels”. In addition, the “intracellular reactive oxidative stress (ROS)” value in [11] was “decrease the level of ROS”. The “intracellular reactive oxidative stress (ROS)” value in [12] was “decrease the level of ROS”. Further, the “mitochondrial membrane potential (TMRE)” value in experiment [13] is recorded as “maintain the mitochondrial membrane potential”.
Regarding `CC1(C)SC2(C=C(C(C)(C)C)C(=O)C(C(C)(C)C)=C2)C2(C=C(C(C)(C)C)C(=O)C(C(C)(C)C)=C2)S1` [SPQ, 2,4,9,11-tetrakis(1,1-dimethylethyl)-14,14-dimethyl-13,15-dithiadispiro[5.0.5.3]pentadeca-1,4,8,11-tetraene-3,10-dione], the “LDH activity / LDH release” value in experiment [1] is on record as “decreased significantly LDH activity”. The “mitochondrial membrane potential (TMRE)” value in experiment [2] is “maintain the mitochondrial membrane potential”. For the same compound, in experiment [3], the “synapsin 1 protein expression” value is recorded as “clear reversal of degeneration”. Also, in experiment [4], the “Nurr1 (immunolocalization)” value is on record as “more pronounced”, the “TH (immunolocalization)” value is “more pronounced” and the “synapsin protein expression” value is “clear restoration of synapsin expression”. Besides, the “glutathione (GSH) activity” value in experiment [5] was “increase in the anti-oxidant GSH activity”. The “Acetylcholine (ACh) release / level” value in [6] is “increase/maintain the level of acetylcholine (ACh)”. In addition, in [7], the “BACE1 gene expression (qRT-PCR)” value is “decrease the level of beta secretase 1 (BACE1)”, the “ChAT gene expression (qRT-PCR)” value is “increase the level of choline acetyltransferase (ChAT)”, the “neuropilin gene expression (qRT-PCR)” value is “increased” and the “synapsin 1 (Syn) gene expression (qRT-PCR)” value is “increased”. Moreover, in [8], the “Acetylcholinesterase (AChE) activity” value is on record as “inhibition of acetylcholinesterase (AChE) similar to rivastigmine”. For the same compound, in experiment [9], the nitric oxide level entry was “prevent the reduction of endogenous nitric oxide level”. Also, the nitric oxide level entry in [10] is recorded as “prevent the reduction of endogenous nitric oxide levels”. In experiment [11], the “intracellular reactive oxidative stress (ROS)” value is “decrease the level of ROS”. Besides, the “intracellular reactive oxidative stress (ROS)” value in [12] is listed as “decrease the level of ROS”. The “mitochondrial membrane potential (TMRE)” value in [13] was “enhanced restoration of the mitochondrial membrane potential”.

For the origin of these results see patent publication US20240374739A1, “BILE ACID CONJUGATE” (Curtin University, priority 2021, published 2024).
